# Results: patent US7981899B2, “Use of compatible solutes for inhibiting the release of ceramides” (Merck Patent GmbH, priority 2002, dated 2011)
# Tests used:
# [1] = test system: normal human keratinocytes; test: Inhibition of UV-A-induced ceramide formation, quantitative HPTLC (Example B1); assay type: cell-based; conditions: 1 mM pre-incubation for 24 hours, UVA 30 J/cm^2, 1 hour after irradiation, FIG. 1
# Protocol: The concentration of a second messenger (ceramide) in UVA-irradiated normal human keratinocytes which have either been pretreated with 1 mM RONACARE™ ectoin or are untreated compared with unirradiated keratinocytes is measured using a quantitative HPTLC method. (A) Un-pretreated control, (B) pre-incubated only with the cell medium for 24 hours, (C) pre-incubated with 1 mM RONACARE™ ectoin for 24 hours. The cells pre-treated in this way are irradiated with a single dose of UVA of 30 J/cm^2 (radiation source: Sellamed 24000). The cells are “harvested” 1 hour after irradiation, a lipid extraction is carried out, and the concentration of the second messenger is determined by quantitative HPTLC. Methodological details are given in Grether-Beck Set al., EMBO J 19: 5793-5800, 2000. […] The data are shown as histograms of ectoin (mM) against ceramide (ng).
# [2] = test system: transcription factor AP-2; test: Inhibition of UV-A-induced AP-2 activation, gel electrophoresis mobility shift assay (Example B2); assay type: cell-based; conditions: human keratinocytes, 1 mM pre-incubation for 24 hours, UV-A 30 J/cm^2, FIG. 2
# Protocol: The determination of the activation of transcription factor AP-2 is carried out with the aid of gel electrophoresis mobility shift assays (GEMSA). To this end, a nucleus extract (according to J.D. Dignam, P.L.Martin, B.S. Skastry, R.G.G. Roeder, Methods Enzymol 101 (1983) 582-598) of human keratinocytes which had previously been irradiated for 1 hour with 30 J/cm^2 of UV-A light is incubated in comparison with an unirradiated control with the consensus oligonucleotide sequence of ICAM-1 promoter (in accordance with G.G. Stade, G. Messer, G. Riethmüller, J.P. Johannson; Immunobiology 182 (1990) 79-87). The amount of bound AP-2 is subsequently determined by means of GEMSA. (A) Un-pretreated, unirradiated control, (B) pre-incubated with 1 mM RONACARE™ ectoin for 24 hours and irradiated with a single dose of 30 J/cm^2, or (C) pre-incubated only with the cell medium for 24 hours and irradiated with 30 J/cm^2. The UVA irradiation results in activation of transcription factor AP-2 after UVA exposure.
# dermal human fibroblasts = test: UVA radiation-induced formation of mitochondrial DNA mutations (common deletion), PCR (Example B4); assay type: cell-based; conditions: 1 mM pretreatment, 8 J/cm^2 UVA three times daily, four successive days, three weeks, FIG. 4
# Text: Dermal human fibroblasts are cultivated in Eagle minimal medium. The cells are irradiated three times daily with 8 J/cm^2 of UVA on four successive days over a total of three weeks. The mt-DNA is then extracted and amplified using PCR. Further details on the method are described in detail in M. Berneburg, S. Grether-Beck, V. Kürten, Th. Ruzicka, K. Briviba, H. Sies, J. Krutmann, J Biol Chem 274 (1999) 15345-15349 and M. Berneburg, N. Gattermann, H. Stege, M. Grewe, K. Vogelsang, Th. Ruzicka, J. Krutmann, Photobiol. 66 (1997) 271-275.
# ICAM-1 = test: Inhibition of UV-A-induced ICAM-1 expression, differential RT-PCR (Example B3); assay type: cell-based, human; conditions: keratinocytes, 1 mM pre-incubation for 24 hours, UVA 30 J/cm^2, relative to β-actin, all points in time, FIG. 3
# Protocol: The expression of ICAM-1 is measured using differential reverse transcriptase PCR (RT -PCR) and the kit from Applied Biosystem. In order to take into account the normal variations in gene expression of skin cells, the ICAM-1 expression is compared with the housekeeping gene β-actin formed constitutively. Semiquantitative analysis of the RT-PCR is carried out by ion exchange chromatography using a UV spectrophotometer (A260). (A) Un-pretreated, irradiated control, (B) pre-incubated with 1 mM RONACARE™ ectoin for 24 hours and irradiated with a single dose of 30 J/cm^2, or (C) pre-incubated with 1 mM ectoin for 24 hours, unirradiated. The UVA radiation induces an increase in ICAM-1 expression.
# [3] = test system: normal human keratinocytes; test: Release of second messenger in UV-A-irradiated keratinocytes (Example A); assay type: cell-based; conditions: 2 mM for 24 hours
# Protocol: Normal human keratinocytes which are left untreated or have been treated with a 2 mM solution of RONACARE™ ectoin for 24 hours are subjected to a UV-A radiation dose of 30 J/cm^2 (wavelength of the UV-A radiation: 340-400 nm). […] The cells are harvested 1 hour after irradiation (=maximum UV-A-induced second messenger formation). The release of the second messenger was determined.
structure (smiles),measurement,setting,value
"CC1=N[C@H](C(=O)O)CCN1 [RONACARE™ ectoin, (S)-1,4,5,6-tetrahydro-2-methyl-4-pyrimidinecarboxylic acid]",ceramide formation induced by UVA radiation,[1],completely suppresses ceramide formation
same,activation of transcription factor AP-2 after UVA exposure,[2],suppressed virtually completely
same,formation of mt-DNA mutations,dermal human fibroblasts,prevented the formation of mt-DNA mutations
same,ICAM-1 induction induced by UVA radiation,ICAM-1,virtually completely eliminate ICAM-1 induction
same,UV-A-induced release of the second messenger,[3]; UV-A 30 J/cm^2,inhibits the UV-A-induced release of the second messenger
same,Increase in second messenger,"[3]; UV-A 30 J/cm^2 (340-400 nm), harvested 1 hour after irradiation",5.65 ng
